# Experimental data taken from patent publication US10905764B2, “Hydrated food” (Taiyokagaku Co., Ltd., priority 2005, dated 2021).
# Tests used:
# mice = type: in vivo; conditions: oral administration of theanine by 5 g/kg
# Text: Theanine used in the invention has a high security. […] Furthermore, theanine is known as a principal component of deliciousness of tea and used as a food additive for use as gustatory. An amount of theanine to be added is not limited under the Food Sanitation Law.
# [1] = Dissolution / water solubility; conditions: in the hydrated food
smiles,measurement,setting,value
"CCNC(=O)CC[C@H](N)C(=O)O [theanine, L-theanine]",mortality in acute toxicity test,mice,no mice died
same,upper limit of dissolution,[1],250 mg/mL
